Laboratory results published in US12071602B2, “Inductively coupled capacitor wireless sensor system for rapid antimicrobial susceptibility testing” (SYRACUSE UNIVERSITY, priority 2021, dated 2024).

System: E. coli MG1655
Assay: LC sensor relative permittivity growth monitoring (AST), ampicillin sensitive strain
Type: cell-based
Details: 100 μg/mL ampicillin at the time of inoculation, cultured for 4 hours; observed within 30 mins; FIG. 12

In the case of `CC1(C)S[C@@H]2[C@H](NC(=O)[C@H](N)c3ccccc3)C(=O)N2[C@H]1C(=O)O` [ampicillin], the “growth in presence of ampicillin (relative permittivity)” value is reported as “inhibited”.
